Assay results as given in ChEMBL document CHEMBL1255337, “Entecavir exhibits inhibitory activity against human immunodeficiency virus under conditions of reduced viral challenge” (Antimicrob Agents Chemother, 2008).
Calls of active or inactive are those of the source. No cut-off for these calls is given here.

Key:
[1] = test system: Human immunodeficiency virus 1; experiment: Antiviral activity against HIV1 3B infected in MOLT-4/3B cells assessed as inhibition of mature virus release measured after 4 days of infection by RT assay; format: functional, organism-based; conditions: Human immunodeficiency virus 1, 3B, MOLT-4, 96 h
[2] = test system: Human immunodeficiency virus 1; format: functional, organism-based; conditions: Human immunodeficiency virus 1, NL4-3, MT2
[3] = test system: Human immunodeficiency virus 1; experiment: microbe, parasite or virus in culture; conditions: Human immunodeficiency virus 1, NL-RLuc, MT2, 120 h
Description: Antiviral activity against pseudotype HIV1 NL-RLuc infected in human MT2 cells measured on day 5 postinfection by luciferase reporter gene assay

[4] = test system: Human immunodeficiency virus 1; experiment: microbe, parasite or virus in culture; conditions: Human immunodeficiency virus 1, subtype B-HXB2, MT2
Description: Antiviral activity against HIV1 subtype B-HXB2 infected in 1 hr-pretreated human MT2 cells assessed as inhibition of multicycle replication measured on day 5 postinfection by RT SPA

[5] = test system: Human immunodeficiency virus 1; experiment: microbe, parasite or virus in culture; conditions: Human immunodeficiency virus 1, subtype B-RF, MT2
Description: Antiviral activity against HIV1 subtype B-RF infected in 1 hr-pretreated human MT2 cells assessed as inhibition of multicycle replication measured on day 5 postinfection by RT SPA

[6] = test system: Human immunodeficiency virus 1; experiment: microbe, parasite or virus in culture; conditions: Human immunodeficiency virus 1, subtype B-SF-2, MT2
Description: Antiviral activity against HIV1 subtype B-SF-2 infected in 1 hr-pretreated human MT2 cells assessed as inhibition of multicycle replication measured on day 5 postinfection by RT SPA

[7] = test system: Human immunodeficiency virus 1; experiment: microbe, parasite or virus in culture; conditions: Human immunodeficiency virus 1, subtype B-3B, MT2
Description: Antiviral activity against HIV1 subtype B-3B infected in 1 hr-pretreated human MT2 cells assessed as inhibition of multicycle replication measured on day 5 postinfection by RT SPA

[8] = test system: Human immunodeficiency virus 1; experiment: microbe, parasite or virus in culture; conditions: Human immunodeficiency virus 1, subtype B-LAI, MT2
Description: Antiviral activity against HIV1 subtype B-LAI infected in 1 hr-pretreated human MT2 cells assessed as inhibition of multicycle replication measured on day 5 postinfection by RT SPA

[9] = test system: Human immunodeficiency virus 1; experiment: microbe, parasite or virus in culture; conditions: Human immunodeficiency virus 1, subtype B-NL4-3, MT2
Description: Antiviral activity against HIV1 subtype B-NL4-3 infected in 1 hr-pretreated human MT2 cells assessed as inhibition of multicycle replication measured on day 5 postinfection by RT SPA

[10] = test system: Human immunodeficiency virus 1; experiment: microbe, parasite or virus in culture; conditions: Human immunodeficiency virus 1, subtype B-93US143, PBMC
Description: Antiviral activity against HIV1 subtype B-93US143 infected in 1 hr-pretreated PBMC cells assessed as inhibition of p24 antigen production measured on day 5 postinfection by ELISA

[11] = test system: Human immunodeficiency virus 1; experiment: microbe, parasite or virus in culture; conditions: Human immunodeficiency virus 1, subtype B-ASM 034, PBMC
Description: Antiviral activity against HIV1 subtype B-ASM 034 infected in 1 hr-pretreated PBMC cells assessed as inhibition of p24 antigen production measured on day 5 postinfection by ELISA

[12] = test system: Human immunodeficiency virus 1; experiment: microbe, parasite or virus in culture; conditions: Human immunodeficiency virus 1, subtype B-92US076, PBMC
Description: Antiviral activity against HIV1 subtype B-92US076 infected in 1 hr-pretreated PBMC cells assessed as inhibition of p24 antigen production measured on day 5 postinfection by ELISA

[13] = test system: Human immunodeficiency virus 1; experiment: microbe, parasite or virus in culture; conditions: Human immunodeficiency virus 1, subtype B-ASM 044, PBMC
Description: Antiviral activity against HIV1 subtype B-ASM 044 infected in 1 hr-pretreated PBMC cells assessed as inhibition of p24 antigen production measured on day 5 postinfection by ELISA

[14] = test system: Human immunodeficiency virus 1; experiment: microbe, parasite or virus in culture; conditions: Human immunodeficiency virus 1, NL4-3, MT2, 120 h
Description: Antiviral activity against 0.005 MOI wild type HIV1 NL4-3 infected in human MT2 cells measured after 5 days by RT SPA

[15] = test system: Human immunodeficiency virus 1; experiment: microbe, parasite or virus in culture; conditions: Human immunodeficiency virus 1, NL4-3, MT2, 120 h; remark: listed apart in the source
Description: Antiviral activity against 0.01 MOI wild type HIV1 NL4-3 infected in human MT2 cells measured after 5 days by RT SPA

[16] = test system: Human immunodeficiency virus 1; experiment: microbe, parasite or virus in culture; conditions: Human immunodeficiency virus 1, NL4-3, MT2, 120 h; remark: listed apart in the source
Description: Antiviral activity against 0.02 MOI wild type HIV1 NL4-3 infected in human MT2 cells measured after 5 days by RT SPA

[17] = test system: Human immunodeficiency virus 1; experiment: microbe, parasite or virus in culture; conditions: Human immunodeficiency virus 1, NL4-3, MT2, 120 h; remark: listed apart in the source
Description: Antiviral activity against 0.05 MOI wild type HIV1 NL4-3 infected in human MT2 cells measured after 5 days by RT SPA

[18] = test system: Human immunodeficiency virus 1; experiment: microbe, parasite or virus in culture; conditions: Human immunodeficiency virus 1, NL4-3, MT2
Description: Antiviral activity against 0.005 MOI wild type HIV1 NL4-3 infected in 2 hr-pretreated human MT2 cells measured after 5 days by RT SPA

[19] = test system: Human immunodeficiency virus 1; experiment: microbe, parasite or virus in culture; conditions: Human immunodeficiency virus 1, NL4-3, MT2; remark: listed apart in the source
Description: Antiviral activity against 0.01 MOI wild type HIV1 NL4-3 infected in 2 hr-pretreated human MT2 cells measured after 5 days by RT SPA

[20] = test system: Human immunodeficiency virus 1; experiment: microbe, parasite or virus in culture; conditions: Human immunodeficiency virus 1, NL4-3, MT2; remark: listed apart in the source
Description: Antiviral activity against 0.02 MOI wild type HIV1 NL4-3 infected in 2 hr-pretreated human MT2 cells measured after 5 days by RT SPA

[21] = test system: Human immunodeficiency virus 1; experiment: microbe, parasite or virus in culture; conditions: Human immunodeficiency virus 1, NL4-3, MT2; remark: listed apart in the source
Description: Antiviral activity against 0.05 MOI wild type HIV1 NL4-3 infected in 2 hr-pretreated human MT2 cells measured after 5 days by RT SPA

[22] = test system: Human immunodeficiency virus 1; experiment: microbe, parasite or virus in culture; conditions: Human immunodeficiency virus 1, NL4-3, MT2, 120 h; remark: listed apart in the source
Description: Antiviral activity against 0.005 MOI wild type HIV1 NL4-3 infected in human MT2 cells measured after 5 days by MTS assay

[23] = test system: Human immunodeficiency virus 1; experiment: microbe, parasite or virus in culture; conditions: Human immunodeficiency virus 1, NL4-3, MT2, 120 h; remark: listed apart in the source
Description: Antiviral activity against 0.01 MOI wild type HIV1 NL4-3 infected in human MT2 cells measured after 5 days by MTS assay

[24] = test system: Human immunodeficiency virus 1; experiment: microbe, parasite or virus in culture; conditions: Human immunodeficiency virus 1, NL4-3, MT2, 120 h; remark: listed apart in the source
Description: Antiviral activity against 0.02 MOI wild type HIV1 NL4-3 infected in human MT2 cells measured after 5 days by MTS assay

[25] = test system: Human immunodeficiency virus 1; experiment: microbe, parasite or virus in culture; conditions: Human immunodeficiency virus 1, NL4-3, MT2, 120 h; remark: listed apart in the source
Description: Antiviral activity against 0.05 MOI wild type HIV1 NL4-3 infected in human MT2 cells measured after 5 days by MTS assay

[26] = test system: Human immunodeficiency virus 1; experiment: microbe, parasite or virus in culture; conditions: Human immunodeficiency virus 1, NL4-3, MT2; remark: listed apart in the source
Description: Antiviral activity against 0.005 MOI wild type HIV1 NL4-3 infected in 2 hr-pretreated human MT2 cells measured after 5 days by MTS assay

[27] = test system: Human immunodeficiency virus 1; experiment: microbe, parasite or virus in culture; conditions: Human immunodeficiency virus 1, NL4-3, MT2; remark: listed apart in the source
Description: Antiviral activity against 0.01 MOI wild type HIV1 NL4-3 infected in 2 hr-pretreated human MT2 cells measured after 5 days by MTS assay

[28] = test system: Human immunodeficiency virus 1; experiment: microbe, parasite or virus in culture; conditions: Human immunodeficiency virus 1, NL4-3, MT2; remark: listed apart in the source
Description: Antiviral activity against 0.02 MOI wild type HIV1 NL4-3 infected in 2 hr-pretreated human MT2 cells measured after 5 days by MTS assay

[29] = test system: Human immunodeficiency virus 1; experiment: microbe, parasite or virus in culture; conditions: Human immunodeficiency virus 1, NL4-3, MT2; remark: listed apart in the source
Description: Antiviral activity against 0.05 MOI wild type HIV1 NL4-3 infected in 2 hr-pretreated human MT2 cells measured after 5 days by MTS assay

[30] = test system: Human immunodeficiency virus 1; experiment: microbe, parasite or virus in culture; conditions: Human immunodeficiency virus 1, NL4-3, MT2; remark: listed apart in the source
Hepatitis B virus = experiment: Antiviral activity against Hepatitis B virus; format: functional, organism-based
[31] = test system: Human immunodeficiency virus 1; experiment: Antiviral activity against HIV1 infected in human CEM-SS cells after 10 days by MTT assay; format: functional, organism-based; conditions: Human immunodeficiency virus 1, CEM-SS, 240 h
CEM-SS = experiment: Cytotoxicity against human CEM-SS cells after 10 days by MTT assay; format: cell-based; conditions: 240 h
[32] = test system: Human immunodeficiency virus 1; experiment: Antiviral activity against pseudotype HIV1 LAI-Luc infected in CD4-positive human HeLa cells measured on day 3 postinfection by luciferase reporter gene assay; format: functional, organism-based; conditions: Human immunodeficiency virus 1, LAI-Luc, 72 h
[33] = test system: Human immunodeficiency virus 1; experiment: Antiviral activity against pseudotype HIV1 LAI-Luc infected in human MT2 cells measured on day 3 postinfection by luciferase reporter gene assay; format: functional, organism-based; conditions: Human immunodeficiency virus 1, LAI-Luc, MT2, 72 h
[34] = test system: Human immunodeficiency virus 1; experiment: Antiviral activity against pseudotype HIV1 LAI-Luc infected in human PBMC measured on day 3 postinfection by luciferase reporter gene assay; format: functional, organism-based; conditions: Human immunodeficiency virus 1, LAI-Luc, 72 h
[35] = test system: Human immunodeficiency virus 1; experiment: Antiviral activity against pseudotype HIV1 NL-Luc infected in 24 hrs pretreated HEK293 cells by phenosense assay; format: functional, organism-based; conditions: Human immunodeficiency virus 1, NL-Luc
[36] = test system: Human immunodeficiency virus 1; experiment: Antiviral activity against HIV1 subtype B-NL4-3 infected in 2 hrs pretreated human MT2 cells assessed as inhibition of multicycle replication measured on day 5 postinfection by RT SPA; format: functional, organism-based; conditions: Human immunodeficiency virus 1, subtype B-NL4-3, MT2
[37] = test system: Human immunodeficiency virus 1; experiment: Antiviral activity against HIV1 subtype B-NL4-3 infected in 3 hrs pretreated human MT2 cells assessed as inhibition of multicycle replication measured on day 5 postinfection by RT SPA; format: functional, organism-based; conditions: Human immunodeficiency virus 1, subtype B-NL4-3, MT2
[38] = test system: Human immunodeficiency virus 1; experiment: Antiviral activity against 0.006 MOI HIV1 NL4-3 infected in human MT2 cells measured after 5 days by RT SPA; format: functional, organism-based; conditions: Human immunodeficiency virus 1, NL4-3, MT2, 120 h
[39] = test system: Human immunodeficiency virus 1; experiment: Antiviral activity against 0.006 MOI HIV1 NL4-3 infected in 1 hr-pretreated human MT2 cells measured after 5 days by RT SPA; format: functional, organism-based; conditions: Human immunodeficiency virus 1, NL4-3, MT2
[40] = test system: Human immunodeficiency virus 1; experiment: Antiviral activity against 0.006 MOI HIV1 NL4-3 infected in 2 hr-pretreated human MT2 cells measured after 5 days by RT SPA; format: functional, organism-based; conditions: Human immunodeficiency virus 1, NL4-3, MT2
[41] = test system: Human immunodeficiency virus 1; experiment: Antiviral activity against 0.005 MOI HIV1 NL4-3 harboring wild type RT infected in human MT2 cells by phenosense assay; format: functional, organism-based; conditions: Human immunodeficiency virus 1, NL4-3, MT2
[42] = test system: Human immunodeficiency virus 1; format: functional, organism-based; conditions: Human immunodeficiency virus 1, NL4-3, MT2; remark: listed apart in the source
[43] = test system: Human immunodeficiency virus 1; experiment: Antiviral activity against HIV1 NL4-3 harboring M184L mutant RT infected in human MT2 cellssmeasured after 7 passages on day 34 postinfection; format: functional, organism-based; conditions: Human immunodeficiency virus 1, NL4-3, MT2
[44] = test system: Human immunodeficiency virus; experiment: Antiviral activity against HIV infected in CD4+ lymphocyte by fluorescence-activated cell sorter assay; format: functional, organism-based; conditions: Human immunodeficiency virus 1
[45] = Cmax in human blood; format: ADME, organism-based
[46] = test system: Human immunodeficiency virus 1; format: functional, organism-based; conditions: NL4-3, 2.5 uM
[47] = Cmax in human at 1 mg, po; conditions: in vivo

Cc1cn([C@H]2C[C@H](N=[N+]=[N-])[C@@H](CO)O2)c(=O)[nH]c1=O [ZIDOVUDINE]
EC50 [1]: > 10 µM | EC50 [2]: 0.005 µM | EC50 [3]: 0.016 µM | EC50 [4]: 0.014 µM | EC50 [5]: 0.0029 µM | EC50 [6]: 0.0063 µM | EC50 [7]: 0.0012 µM | EC50 [8]: 0.0038 µM | EC50 [9]: 0.0049 µM | EC50 [10]: 0.034 µM | EC50 [11]: 0.018 µM | EC50 [12]: 0.008 µM | EC50 [13]: 0.016 µM | EC50 [14]: 0.01 µM | EC50 [15]: 0.008 µM | EC50 [16]: 0.018 µM | EC50 [17]: 0.043 µM | EC50 [18]: 0.051 µM | EC50 [19]: 0.075 µM | EC50 [20]: 0.209 µM | EC50 [21]: 0.249 µM | EC50 [22]: 0.027 µM | EC50 [23]: 0.038 µM | EC50 [24]: 0.054 µM | EC50 [25]: 0.087 µM | EC50 [26]: 0.117 µM | EC50 [27]: 0.144 µM | EC50 [28]: 0.223 µM | EC50 [29]: 0.302 µM | EC50 [30]: 0.01 µM

O=C1Nc2ccc(Cl)cc2[C@@](C#CC2CC2)(C(F)(F)F)O1 [EFAVIRENZ]
EC50 [2]: 0.0002 µM

Cc1c(O)cccc1C(=O)N[C@@H](CSc1ccccc1)[C@H](O)CN1C[C@H]2CCCC[C@H]2C[C@H]1C(=O)NC(C)(C)C [NELFINAVIR]
EC50 [1]: 0.029 µM

C=C1[C@H](CO)[C@@H](O)C[C@@H]1n1cnc2c(=O)[nH]c(N)nc21.O [ENTECAVIR]
EC50 (Hepatitis B virus): 0.004 µM | EC50 [31]: > 10 µM | CC50 (CEM-SS): 21 µM | EC50 [32]: > 4 µM | EC50 [33]: > 1.2 µM | EC50 [34]: > 2.5 µM | EC50 [35]: 30.6 µM | EC50 [36]: 1.4 µM | EC50 [37]: > 10 µM | EC50 [38]: 0.151 µM | EC50 [39]: 0.287 µM | EC50 [40]: 13.5 µM | EC50 [1]: > 38 µM | EC50 [2]: > 10 µM | EC50 [41]: 30.6 µM | EC50 [42]: > 100 µM | EC50 [43]: > 10 µM | EC50 [44]: 0.0001 µM | Cmax [45]: 30 nM | Activity [46]: Active | Cmax [47]: 30 nM | EC50 [3]: 1.3 µM | EC50 [4]: 1.03 µM | EC50 [5]: 0.839 µM | EC50 [6]: 0.526 µM | EC50 [7]: 0.081 µM | EC50 [8]: 0.071 µM | EC50 [9]: 0.085 µM | EC50 [10]: 1.75 µM | EC50 [11]: 0.109 µM | EC50 [12]: 0.062 µM | EC50 [13]: 0.026 µM | EC50 [14]: 0.056 µM | EC50 [15]: 0.095 µM | EC50 [16]: 0.449 µM | EC50 [17]: 6.45 µM | EC50 [18]: 3.62 µM | EC50 [19]: 9.57 µM | EC50 [20]: > 10000 µM | EC50 [21]: > 10000 µM | EC50 [22]: 1.36 µM | EC50 [23]: > 2.9 µM | EC50 [24]: > 6.35 µM | EC50 [25]: > 10 µM | EC50 [26]: > 10 µM | EC50 [27]: > 9.69 µM | EC50 [28]: > 10 µM | EC50 [29]: > 10 µM | EC50 [30]: 0.056 µM

Nc1ccn([C@@H]2CS[C@H](CO)O2)c(=O)n1 [LAMIVUDINE]
EC50 [1]: > 100 µM | EC50 [2]: > 10 µM | Activity [46]: inactive | EC50 [3]: 1.14 µM | EC50 [4]: 0.202 µM | EC50 [5]: 0.105 µM | EC50 [6]: 0.183 µM | EC50 [7]: 0.047 µM | EC50 [8]: 0.182 µM | EC50 [9]: 0.171 µM | EC50 [10]: 0.85 µM | EC50 [11]: 0.071 µM | EC50 [12]: 0.081 µM | EC50 [13]: 0.04 µM | EC50 [14]: 0.04 µM | EC50 [15]: 0.063 µM | EC50 [16]: 0.086 µM | EC50 [17]: 0.372 µM | EC50 [18]: 0.462 µM | EC50 [19]: 0.667 µM | EC50 [20]: 1.99 µM | EC50 [21]: 2.47 µM | EC50 [22]: 0.219 µM | EC50 [23]: 0.554 µM | EC50 [24]: 0.969 µM | EC50 [25]: 0.927 µM | EC50 [26]: 1.26 µM | EC50 [27]: 1.68 µM | EC50 [28]: 2.44 µM | EC50 [29]: 3.25 µM | EC50 [30]: 0.04 µM
